Patent publication US20080090835A1, “Polymorphic forms of ziprasidone HCl and processes for their preparation” (Teva Pharmaceuticals USA, Inc. for Barbados, priority 2003, published 2008)
Counter-ions that a name gives are not always drawn.

Legend:
Assay type in all cases: physicochemical
[1] = Solubility in methanol (noted for Karl Fisher water determination)
Source text: Ziprasidone HCl Form G may have a water content of about 5% to about 12%. Ziprasidone HCl Form G may be a dihydrate (about 7.4% stoichiometric value for the dihydrate) or a trihydrate (about 10.7% stoichiometric value for the trihydrate).

[2] = Heating at 80-105° C. overnight: crystal form and water content; details: for Crystal form after heating at 80-105° C. overnight / Crystal form after heating at elevated temperature: HCl; for Crystal form after heating at elevated temperature: about 80° C. overnight
Source text: (§1) Form A is characterized by an X-Ray diffraction pattern having peaks at about 10.9, 17.4 19.1, 25.0 and 26.0±0.2 degrees 2 theta.
(§2) In another aspect, the present invention provides for ziprasidone HCl Form F. Ziprasidone HCl Form F is characterized by an XRD pattern (FIG. 7) with peaks at 11.0, 18.1, 19.5, 21.9±0.2 degrees 2 theta. Ziprasidone HCl Form F is further characterized by XRD peaks at 14.9, 24.9, 26.1±0.2 degrees 2 theta. […] The water content and the weight loss by TGA of the sample may range of about 2.6% to about 16% by weight.
(§3) X-Ray powder diffraction data were obtained using by method known in the art using a SCINTAG powder X-Ray diffractometer model X'TRA equipped with a solid state detector. Copper radiation of 1.5418 Å was used. A round aluminum sample holder with round zero background quartz plate, with cavity of 25(diameter)*0.5(dept) mm.
(§4) The water content of ziprasidone HCl was measured by the methods known in the art like Karl Fisher or thermogravimetric analysis (TGA). In the case of ziprasidone HCl F, the TGA and Karl Fisher analysis matched, while for ziprasidone HCl form E the TGA analysis exceeded by far that of Karl Fisher, as an indication that a significant quantity of solvent is present.

[3] = Equilibration at different relative humidities for 22 days: water uptake (TGA weight loss) and crystal form; details: for TGA weight loss (%) (water uptake): HCl
Source text: as §1, §2, §3
TGA analysis was done using a Mettler M3 meter. The weight of the samples was about 10 mg; the samples were scanned at a rate of 10° C./min from 25° C. to 200° C. The oven was constantly purged with nitrogen gas at a flow rate of 40 ml/min. Standard 70 μl alumina crucibles covered by lids with 1 hole were used.
as §4

Solubility in water = assay: Solubility in water

Row | Solubility in methanol [1] | Crystal form after heating at 80-105° C. overnight [2] | Crystal form after heating at elevated temperature [2] | Crystal form ([3]; RH 0%, 22 days) | TGA weight loss (%) (water uptake) ([3]; RH 0%, 22 days) | TGA weight loss (%) (water uptake) ([3]; RH 20%, 22 days) | TGA weight loss (%) (water uptake) ([3]; RH 40%, 22 days) | TGA weight loss (%) (water uptake) ([3]; RH 60%, 22 days) | Crystal form ([3]; RH 80%, 22 days) | TGA weight loss (%) (water uptake) ([3]; RH 80%, 22 days) | Crystal form ([3]; RH 100%, 22 days) | TGA weight loss (%) (water uptake) ([3]; RH 100%, 22 days) | Crystal form after exposure to relative humidity of about 20% to about 60% ([3]; RH about 20% to about 60%, about 22 days) | Crystal form after exposure to low relative humidity ([3]; about 10% to about 0% relative humidity, 22 days) | Crystal form after exposure to high relative humidity ([3]; high relative humidity, about 22 days) | % water content ([2]; after heating at 80-105° C. overnight) [%] | Water content after heating ([2]; heated overnight at about 80° C.) [%] | Crystal form after equilibration at relative humidity of about 0% to about 100% ([3]; RH about 0% to about 100%) | Solubility in water (Solubility in water) | Compound
1 | sparingly soluble |  |  |  |  |  |  |  |  |  |  |  |  |  |  |  |  |  |  | O=C1Cc2cc(CCN3CCN(c4nsc5ccccc45)CC3)c(Cl)cc2N1 [Ziprasidone HCl Form G, ziprasidone HCl]
2 |  | Amorphous + form F | transforms to amorphous form | Amorphous | 5.3 | 7.2 | 4.8 | 5.0 | Monohydrate + | 9.2 | Monohydrate + | 51.3 | transforms to Form A | transforms to amorphous form | transforms to form M |  |  |  |  | O=C1Cc2cc(CCN3CCN(c4nsc5ccccc45)CC3)c(Cl)cc2N1 [ziprasidone HCl form E, ziprasidone HCl]
3 |  | Form F | retains its original crystal form |  | 2.6 | 4.2 | 4.0 | 4.5 |  | 7.7 |  | 15.8 |  |  |  | 0.8 | 0.8 | retains its crystal form |  | O=C1Cc2cc(CCN3CCN(c4nsc5ccccc45)CC3)c(Cl)cc2N1 [ziprasidone HCl form F, ziprasidone HCl]
4 |  |  |  |  |  |  |  |  |  |  |  |  |  |  |  |  |  |  | low solubility | O=C1Cc2cc(CCN3CCN(c4nsc5ccccc45)CC3)c(Cl)cc2N1 [ziprasidone HCl]
